The record followed here is US20240360082A1, “SUBSTITUTED PYRIDONE COMPOUNDS USEFUL TO TREAT ORTH[…]” (priority 2021, published 2024).

In one test the target is influenza A virus minigenome (PB2, PB1, PA, NP proteins) (UniProt P04665). The format is cell-based. The settings on record: read-out: RNP_ Hubei B IC50.
Chain of influenza A virus minigenome (PB2, PB1, PA, NP proteins) (P04665 whole entry): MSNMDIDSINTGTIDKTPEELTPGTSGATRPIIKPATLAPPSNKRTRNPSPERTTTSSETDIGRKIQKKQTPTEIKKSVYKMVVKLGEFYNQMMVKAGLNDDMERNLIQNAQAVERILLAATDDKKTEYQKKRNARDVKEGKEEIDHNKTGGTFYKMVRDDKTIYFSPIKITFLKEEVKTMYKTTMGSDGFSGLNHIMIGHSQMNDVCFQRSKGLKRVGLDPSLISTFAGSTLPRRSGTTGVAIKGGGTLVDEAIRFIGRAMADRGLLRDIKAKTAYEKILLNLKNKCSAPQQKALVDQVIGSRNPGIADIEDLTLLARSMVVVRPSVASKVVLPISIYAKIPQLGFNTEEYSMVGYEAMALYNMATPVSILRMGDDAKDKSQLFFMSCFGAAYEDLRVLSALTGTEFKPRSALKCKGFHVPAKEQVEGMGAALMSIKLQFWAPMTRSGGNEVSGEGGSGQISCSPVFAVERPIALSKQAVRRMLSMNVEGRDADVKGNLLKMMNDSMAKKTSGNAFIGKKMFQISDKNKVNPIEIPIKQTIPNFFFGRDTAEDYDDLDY
Turning to `NC(=O)c1cc(-c2ccc(OCC3COCC(C4CCCC4)O3)cc2)c(C(F)(F)F)[nH]c1=O` (racemic) [Example 333, 5-(4-((6-cyclopentyl-1,4-dioxan-2-yl)methoxy)phenyl)-2-oxo-6-(trifluoromethyl)-1,2-dihydropyridine-3-carboxamide], the IC50 was in the range of 1 to 5 µM.
In the case of `NC(=O)c1cc(-c2ccc(OCC3COC4(CC4)CO3)cc2)c(C(F)(F)F)[nH]c1=O` (racemic) [Example 338, 5-(4-((4,7-dioxaspiro[2.5]octan-6-yl)methoxy)phenyl)-2-oxo-6-(trifluoromethyl)-1,2-dihydropyridine-3-carboxamide], the IC50 is 10 to 25 µM.
The same measure, in the same setting: next, `NC(=O)c1cc(-c2ccc(OCC3COCCO3)cc2)c(C(F)(F)F)[nH]c1=O` (single isomer, unassigned) [Example 237, 5-(4-((1,4-dioxan-2-yl)methoxy)phenyl)-2-oxo-6-(trifluoromethyl)-1,2-dihydropyridine-3-carboxamide]: 25 to 50 µM; `NC(=O)c1cc(-c2ccc(OCC3COCCO3)cc2)c(C(F)(F)F)[nH]c1=O` (single isomer, unassigned) [Example 238, 5-(4-((1,4-dioxan-2-yl)methoxy)phenyl)-2-oxo-6-(trifluoromethyl)-1,2-dihydropyridine-3-carboxamide]: 25 to 50 µM.
As to `Cn1ncc2c1COCC2COc1ccc(-c2cc(C(N)=O)c(=O)[nH]c2C(F)(F)F)cc1` (single isomer, unassigned) [Example 289, 5-(4-((1-methyl-1,4,5,7-tetrahydropyrano[3,4-c]pyrazol-4-yl)methoxy)phenyl)-2-oxo-6-(trifluoromethyl)-1,2-dihydropyridine-3-carboxamide], the IC50 lay within 5 to 10 µM.
On the same count and under the same terms, the same measure for `Cn1ncc2c1COCC2COc1ccc(-c2cc(C(N)=O)c(=O)[nH]c2C(F)(F)F)cc1` (single isomer, unassigned) [Example 290, 5-(4-((1-methyl-1,4,5,7-tetrahydropyrano[3,4-c]pyrazol-4-yl)methoxy)phenyl)-2-oxo-6-(trifluoromethyl)-1,2-dihydropyridine-3-carboxamide]: 5 to 10 µM.
On the same count and under the same terms, next, `CC(C)n1ncc2c1COCC2COc1ccc(-c2cc(C(N)=O)c(=O)[nH]c2C(F)(F)F)cc1` (single isomer, unassigned) [Example 293, 5-(4-((1-isopropyl-1,4,5,7-tetrahydropyrano[3,4-c]pyrazol-4-yl)methoxy)phenyl)-2-oxo-6-(trifluoromethyl)-1,2-dihydropyridine-3-carboxamide]: 5 to 10 µM; `CC(C)n1ncc2c1COCC2COc1ccc(-c2cc(C(N)=O)c(=O)[nH]c2C(F)(F)F)cc1` (single isomer, unassigned) [Example 294, 5-(4-((1-isopropyl-1,4,5,7-tetrahydropyrano[3,4-c]pyrazol-4-yl)methoxy)phenyl)-2-oxo-6-(trifluoromethyl)-1,2-dihydropyridine-3-carboxamide]: 5 to 10 µM; `CC(C)n1cc2c(n1)COCC2COc1ccc(-c2cc(C(N)=O)c(=O)[nH]c2C(F)(F)F)cc1` (single isomer, unassigned) [Example 295, 5-(4-((2-isopropyl-2,4,5,7-tetrahydropyrano[3,4-c]pyrazol-4-yl)methoxy)phenyl)-2-oxo-6-(trifluoromethyl)-1,2-dihydropyridine-3-carboxamide]: 5 to 10 µM.
Same read-out and setting: next, `CC(C)n1cc2c(n1)COCC2COc1ccc(-c2cc(C(N)=O)c(=O)[nH]c2C(F)(F)F)cc1` (single isomer, unassigned) [Example 296, 5-(4-((2-isopropyl-2,4,5,7-tetrahydropyrano[3,4-c]pyrazol-4-yl)methoxy)phenyl)-2-oxo-6-(trifluoromethyl)-1,2-dihydropyridine-3-carboxamide]: 5 to 10 µM.
On to `NC(=O)c1cc(-c2ccc(OCC3C[C@@H]4CC[C@H]3O4)cc2)c(C(F)(F)F)[nH]c1=O` (single isomer, unassigned) [Example 312, 5-(4-((7-oxabicyclo[2.2.1]heptan-2-yl)methoxy)phenyl)-2-oxo-6-(trifluoromethyl)-1,2-dihydropyridine-3-carboxamide], for which the IC50 is 5 to 10 µM.
`NC(=O)c1cc(-c2ccc(OCC3C[C@@H]4CC[C@H]3O4)cc2)c(C(F)(F)F)[nH]c1=O` (single isomer, unassigned) [Example 313, 5-(4-((7-oxabicyclo[2.2.1]heptan-2-yl)methoxy)phenyl)-2-oxo-6-(trifluoromethyl)-1,2-dihydropyridine-3-carboxamide]: the IC50 fell in the range of 10 to 25 µM.
As for `NC(=O)c1cc(-c2ccc(OCC3C[C@@H]4CC[C@H]3O4)cc2)c(C(F)(F)F)[nH]c1=O` (single isomer, unassigned) [Example 314, 5-(4-((7-oxabicyclo[2.2.1]heptan-2-yl)methoxy)phenyl)-2-oxo-6-(trifluoromethyl)-1,2-dihydropyridine-3-carboxamide], the IC50 lay in the range of 10 to 25 µM.
Turning to `NC(=O)c1cc(-c2ccc(OCC3C[C@@H]4CC[C@H]3O4)cc2)c(C(F)(F)F)[nH]c1=O` (single isomer, unassigned) [Example 315, 5-(4-((7-oxabicyclo[2.2.1]heptan-2-yl)methoxy)phenyl)-2-oxo-6-(trifluoromethyl)-1,2-dihydropyridine-3-carboxamide], the IC50 fell in the range of 10 to 25 µM.
On the same count and under the same terms, next, `NC(=O)c1cc(-c2ccc(OCC3OCC4CCC3O4)cc2)c(C(F)(F)F)[nH]c1=O` (single isomer, unassigned) [Example 318, 5-(4-((3,8-dioxabicyclo[3.2.1]octan-2-yl)methoxy)phenyl)-2-oxo-6-(trifluoromethyl)-1,2-dihydropyridine-3-carboxamide]: 5 to 10 µM; `NC(=O)c1cc(-c2ccc(OCC3OCC4CCC3O4)cc2)c(C(F)(F)F)[nH]c1=O` (single isomer, unassigned) [Example 319, 5-(4-((3,8-dioxabicyclo[3.2.1]octan-2-yl)methoxy)phenyl)-2-oxo-6-(trifluoromethyl)-1,2-dihydropyridine-3-carboxamide]: 5 to 10 µM.
Still for that read-out and setting: next, `CC1COC(COc2ccc(-c3cc(C(N)=O)c(=O)[nH]c3C(F)(F)F)cc2)CO1` (single isomer, unassigned) [Example 322, 5-(4-((5-methyl-1,4-dioxan-2-yl)methoxy)phenyl)-2-oxo-6-(trifluoromethyl)-1,2-dihydropyridine-3-carboxamide]: 25 to 50 µM; `CC1COC(COc2ccc(-c3cc(C(N)=O)c(=O)[nH]c3C(F)(F)F)cc2)CO1` (single isomer, unassigned) [Example 323, 5-(4-((5-methyl-1,4-dioxan-2-yl)methoxy)phenyl)-2-oxo-6-(trifluoromethyl)-1,2-dihydropyridine-3-carboxamide]: 10 to 25 µM.

The test is the same for the next values; noted with them: read-out: RNP_Hubei B.
With `CC(Oc1ccc(-c2cc(C(N)=O)c(=O)[nH]c2C(F)(F)F)cc1)c1cccnc1` (single isomer, unassigned) [Example 80, (R or S)-2-oxo-5-(4-(1-(pyridin-3-yl)ethoxy)phenyl)-6-(trifluoromethyl)-1,2-dihydropyridine-3-carboxamide], the IC50 lay in the range of 10 to 25 µM.
`CC(Oc1ccc(-c2cc(C(N)=O)c(=O)[nH]c2C(F)(F)F)cc1)c1cccnc1` (single isomer, unassigned) [Example 81, (R or S)-2-oxo-5-(4-(1-(pyridin-3-yl)ethoxy)phenyl)-6-(trifluoromethyl)-1,2-dihydropyridine-3-carboxamide]: the IC50 was 10 to 25 µM.
As to `CC(Oc1ccc(-c2cc(C(N)=O)c(=O)[nH]c2C(F)(F)F)cc1)c1cncnc1` (single isomer, unassigned) [Example 95, (R or S)-2-oxo-5-(4-(1-(pyrimidin-5-yl)ethoxy)phenyl)-6-(trifluoromethyl)-1,2-dihydropyridine-3-carboxamide], the IC50 fell in the range of 25 to 50 µM.
Same read-out and setting: the same measure for `CC(Oc1ccc(-c2cc(C(N)=O)c(=O)[nH]c2C(F)(F)F)cc1)c1cncnc1` (single isomer, unassigned) [Example 96, (R or S)-2-oxo-5-(4-(1-(pyrimidin-5-yl)ethoxy)phenyl)-6-(trifluoromethyl)-1,2-dihydropyridine-3-carboxamide]: 25 to 50 µM; for `CC(Oc1ccc(-c2cc(C(N)=O)c(=O)[nH]c2C(F)(F)F)cc1)c1cccc(C#N)c1` (single isomer, unassigned) [Example 97, (R or S)-5-(4-(1-(3-cyanophenyl)ethoxy)phenyl)-2-oxo-6-(trifluoromethyl)-1,2-dihydropyridine-3-carboxamide]: 25 to 50 µM; for `CC(Oc1ccc(-c2cc(C(N)=O)c(=O)[nH]c2C(F)(F)F)cc1)c1cccc(C#N)c1` (single isomer, unassigned) [Example 98, (R or S)-5-(4-(1-(3-cyanophenyl)ethoxy)phenyl)-2-oxo-6-(trifluoromethyl)-1,2-dihydropyridine-3-carboxamide]: 1 to 5 µM.
Still for that read-out and setting: the same measure for `CC(Oc1ccc(-c2cc(C(N)=O)c(=O)[nH]c2C(F)(F)F)cc1)c1ccc2nonc2c1` (single isomer, unassigned) [Example 100, (R or S)-5-(4-(1-(benzo[c][1,2,5]oxadiazol-5-yl)ethoxy)phenyl)-2-oxo-6-(trifluoromethyl)-1,2-dihydropyridine-3-carboxamide]: 5 to 10 µM.
Take `COC1CCOC(COc2ccc(-c3cc(C(N)=O)c(=O)[nH]c3C(F)(F)F)cc2)C1` (single isomer, unassigned) [Example 202, 5-(4-((4-methoxytetrahydro-2H-pyran-2-yl)methoxy)phenyl)-2-oxo-6-(trifluoromethyl)-1,2-dihydropyridine-3-carboxamide]: the IC50 was 10 to 25 µM.
Still for that read-out and setting: next, `COC1CCOC(COc2ccc(-c3cc(C(N)=O)c(=O)[nH]c3C(F)(F)F)cc2)C1` (single isomer, unassigned) [Example 203, 5-(4-((4-methoxytetrahydro-2H-pyran-2-yl)methoxy)phenyl)-2-oxo-6-(trifluoromethyl)-1,2-dihydropyridine-3-carboxamide]: 25 to 50 µM.
The same measure, in the same setting: next, `NC(=O)c1cc(-c2ccc(OCC3OCC4CCC3O4)cc2)c(C(F)(F)F)[nH]c1=O` (single isomer, unassigned) [Example 317, 5-(4-((3,8-dioxabicyclo[3.2.1]octan-2-yl)methoxy)phenyl)-2-oxo-6-(trifluoromethyl)-1,2-dihydropyridine-3-carboxamide]: 5 to 10 µM.
